Test results reported in PubChem BioAssay (NCI).
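48-hour exposure; five concentrations; linearly interpolated endpoints. GI50 is the concentration that inhibits growth by half. TGI denotes the concentration required for complete inhibition of growth.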

Columns and labels:
Experiment in all cases: inhibition of tumour cell growth, NCI panel, 48 h
K-562 leukemia = system: K-562 leukemia
SNB-75 CNS = system: SNB-75 CNS
MALME-3M melanoma = system: MALME-3M melanoma
NCI-H226 lung = system: NCI-H226 lung
IGROV1 ovarian = system: IGROV1 ovarian
HOP-18 NSCLC = system: HOP-18 NSCLC
DLD-1 colon = system: DLD-1 colon
CCRF-CEM leukemia = system: CCRF-CEM leukemia
EKVX NSCLC = system: EKVX NSCLC
DMS 273 small cell lung = system: DMS 273 small cell lung
SK-MEL-2 melanoma = system: SK-MEL-2 melanoma

SMILES | TGI (K-562 leukemia) | TGI (SNB-75 CNS) | TGI (MALME-3M melanoma) | TGI (NCI-H226 lung) | TGI (IGROV1 ovarian) | TGI (HOP-18 NSCLC) | TGI (DLD-1 colon) | TGI (CCRF-CEM leukemia) | TGI (EKVX NSCLC) | TGI (DMS 273 small cell lung) | TGI (SK-MEL-2 melanoma) | GI50 (SK-MEL-2 melanoma) | GI50 (K-562 leukemia) | GI50 (SNB-75 CNS) | GI50 (MALME-3M melanoma) | GI50 (NCI-H226 lung) | GI50 (IGROV1 ovarian) | GI50 (CCRF-CEM leukemia) | GI50 (EKVX NSCLC) | GI50 (HOP-18 NSCLC)
N#Cc1ccccc1NC(=O)C(=O)C1NC(=S)NC1=O (stereo unspecified) | > 100 µM | > 100 µM | > 100 µM | > 100 µM | > 100 µM | > 100 µM | > 100 µM | > 100 µM | > 100 µM | – | – | – | – | – | – | – | – | – | – | –
O=c1c2ccccc2nc2ccc3c(Cl)[nH][nH]c3c12 | > 100 µM | > 100 µM | 77.3 µM | > 48.4 µM | > 100 µM | > 100 µM | > 100 µM | > 100 µM | > 100 µM | > 100 µM | > 100 µM | – | – | – | – | – | – | – | – | –
[N-]=[N+]=NCC(O)Cn1cnc2c(NC(=O)c3ccccc3)ncnc21 (stereo unspecified) | > 100 µM | > 100 µM | > 100 µM | > 100 µM | > 100 µM | > 100 µM | > 100 µM | > 100 µM | > 100 µM | > 100 µM | > 100 µM | – | – | – | – | – | – | – | – | –
CCCCN(C)/N=N/c1nc[nH]c1C(N)=O | > 100 µM | > 100 µM | > 100 µM | > 100 µM | > 100 µM | > 100 µM | > 100 µM | > 100 µM | > 100 µM | > 100 µM | > 100 µM | – | – | – | – | – | – | – | – | –
COc1ccc(Oc2ccccc2N)cc1 | > 100 µM | > 100 µM | > 100 µM | > 100 µM | > 100 µM | > 100 µM | > 100 µM | > 100 µM | > 100 µM | > 100 µM | > 100 µM | – | – | – | – | – | – | – | – | –
CCC(=O)OC1CCn2c1nc1c2C(=O)C(C)=C(NC(C)=O)C1=N (stereo unspecified) | > 100 µM | 4.45 µM | 2.74 µM | 4.63 µM | 5.54 µM | 3.26 µM | 3.19 µM | – | 5.48 µM | 3.11 µM | 3.43 µM | – | – | – | – | – | – | – | – | –
CC1(C)O[C@@H](C[C@]2(C#N)C[C@H](CCl)OC(C)(C)O2)C[C@@H](C#N)O1 | > 100 µM | > 100 µM | > 100 µM | > 100 µM | > 100 µM | > 100 µM | > 100 µM | > 100 µM | > 100 µM | > 100 µM | > 100 µM | – | – | – | – | – | – | – | – | –
Nc1c(S(=O)(=O)O)cc(S(=O)(=O)O)c2ccc(N=Nc3ccc(/C=C/c4ccc(N=Nc5ccc6c(S(=O)(=O)O)cc(S(=O)(=O)O)c(N)c6c5O)cc4S(=O)(=O)O)c(S(=O)(=O)O)c3)c(O)c12 | > 100 µM | > 100 µM | > 100 µM | > 100 µM | > 100 µM | > 100 µM | > 100 µM | > 100 µM | > 100 µM | > 100 µM | > 100 µM | – | – | – | – | – | – | – | – | –
CCOC1=C(c2ccccc2)N2CCCCC2O1 (stereo unspecified) | > 47.5 µM | 28.7 µM | 20.7 µM | 32.5 µM | > 51.4 µM | – | – | > 72.4 µM | > 100 µM | – | 7.99 µM | – | – | – | – | – | – | – | – | –
CC(C)c1cc(C(C)C)c(S(=O)(=O)N=[N+]=[N-])c(C(C)C)c1 | > 100 µM | > 100 µM | > 100 µM | > 100 µM | > 100 µM | – | > 100 µM | > 100 µM | – | > 100 µM | – | – | – | – | – | – | – | – | – | –
COc1ccccc1C1C(C#N)=C(N)Oc2n[nH]c(C)c21 (stereo unspecified) | > 100 µM | > 100 µM | > 100 µM | > 100 µM | 95.7 µM | – | – | > 100 µM | > 100 µM | – | > 100 µM | > 100 µM | > 100 µM | > 100 µM | > 100 µM | 74.5 µM | 37.7 µM | 22.8 µM | > 100 µM | –
CCN(CC)CC1CCCCN1CC(=O)N1CC(C)C(=O)Nc2ccccc21 (stereo unspecified) | > 100 µM | – | > 100 µM | > 100 µM | > 100 µM | > 100 µM | > 100 µM | > 100 µM | – | > 100 µM | – | – | – | – | – | – | – | – | – | –
COc1cc2nc(-c3cccs3)nc(Nc3cccc(Cl)c3)c2cc1OC | > 100 µM | > 100 µM | > 100 µM | > 100 µM | > 100 µM | – | – | > 100 µM | > 100 µM | – | > 100 µM | – | – | – | – | – | – | – | – | –
CC(=O)C(C)(C)CCC(C)(C)C(C)=O | > 100 µM | > 100 µM | > 100 µM | > 100 µM | > 100 µM | – | – | > 100 µM | > 100 µM | – | > 100 µM | – | – | – | – | – | – | – | – | –
COc1cc2c(c(OC)c1OC)-c1ccc(SC)c(=O)cc1[C@@H](NCc1ccc([N+](=O)[O-])cc1)CC2 | 37.5 µM | > 100 µM | > 100 µM | 0.0134 µM | > 100 µM | > 100 µM | > 100 µM | – | > 100 µM | 1.06 µM | 19 µM | – | – | – | – | – | – | – | – | > 100 µM
OC(NN=C1CCCC1)(C(F)(F)Cl)C(F)(F)Cl | > 10 µM | > 10 µM | > 10 µM | > 10 µM | > 10 µM | – | – | > 10 µM | > 10 µM | – | > 10 µM | – | – | – | – | – | – | – | – | –
O=C(O)c1ccccc1C1c2ccccc2Oc2ccccc21 | > 100 µM | 85.8 µM | > 100 µM | 65.7 µM | > 100 µM | – | – | > 100 µM | > 100 µM | – | 86.5 µM | – | – | – | – | – | – | – | – | –
Oc1ccc(-c2nc3ccccc3s2)cc1 | > 100 µM | > 100 µM | > 100 µM | > 100 µM | > 100 µM | – | – | > 100 µM | > 100 µM | – | 67.3 µM | – | – | – | – | – | – | – | – | –
